Data from patent US7625948B2, “Ester compound and medicinal use thereof” (Japan Tobacco Inc., priority 2002, dated 2009).
Read-outs that look alike come from different tables or passages of the source.

Tests used:
HepG2 cells = experiment: Test Example 2: inhibition of apolipoprotein B secretion from HepG2 cells, ELISA (also used for metabolites in Test Example 8); format: cell-based; details: Homo sapiens
Outline: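 HepG2 cells cultured 24 h, then exposed 24 h to compounds or metabolites in medium with 0.5% DMSO. Secreted apo B in supernatant quantified by sandwich ELISA (HRP, ABTS, 405 nm) against purified human apo B standard; % inhibition vs DMSO group, IC50 derived.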

Syrian hamsters = experiment: Test Example 3: olive oil-loading test (inhibition of fat absorption, plasma TG); format: in vivo; details: Mesocricetus auratus, po, plasma TG 4 hours after olive oil, read-out: Test Example 3 Inhibition of fat absorption after olive oil-loading in Hamster Inhibition rate (%); for inhibition in vivo at 3 mg/kg: 3 mg/kg p.o.
Protocol: Syrian hamsters (9-11 weeks of age) under non-fasted conditions were used in the test. Blood was collected previously from orbital venous plexus, and a sample was suspended in 0.5% methyl cellulose (vehicle) and the suspension was forced to be administered orally to the hamsters at a dose of 0.3, 1, 3 or 10 mg/2 mL/kg. Only vehicle in the same volume was administered to the control group. Olive oil (2 mL/kg) was forced to be administered orally 30 minutes after the administration of the sample, and blood was collected from orbital venous plexus 4 hours later. Plasma was recovered from the blood, and the amount of triglyceride (TG) in the plasma was determined by automatic analyzer (Hitachi Co.). The data was expressed in terms of ΔTG(mg/dL)=the value at 4th hr minus the value before administration. Inhibition rate (%) was calculated from the data obtained on the basis of the following equation.
Inhibition rate (%)=100×(1 minus ΔTG of sample group/ΔTG of control group).

[1] = target: T1, Microsomal triglyceride transfer protein (MTP) from bovine liver (Bos taurus, UniProt P55156); experiment: Test Example 1: inhibition of interliposomal triglyceride (TG) transfer activity by MTP (also used for metabolites in Test Example 8); format: biochemical
T1 construct: from tissue; host or cells: bovine liver
T1 sequence (P55156 12-887): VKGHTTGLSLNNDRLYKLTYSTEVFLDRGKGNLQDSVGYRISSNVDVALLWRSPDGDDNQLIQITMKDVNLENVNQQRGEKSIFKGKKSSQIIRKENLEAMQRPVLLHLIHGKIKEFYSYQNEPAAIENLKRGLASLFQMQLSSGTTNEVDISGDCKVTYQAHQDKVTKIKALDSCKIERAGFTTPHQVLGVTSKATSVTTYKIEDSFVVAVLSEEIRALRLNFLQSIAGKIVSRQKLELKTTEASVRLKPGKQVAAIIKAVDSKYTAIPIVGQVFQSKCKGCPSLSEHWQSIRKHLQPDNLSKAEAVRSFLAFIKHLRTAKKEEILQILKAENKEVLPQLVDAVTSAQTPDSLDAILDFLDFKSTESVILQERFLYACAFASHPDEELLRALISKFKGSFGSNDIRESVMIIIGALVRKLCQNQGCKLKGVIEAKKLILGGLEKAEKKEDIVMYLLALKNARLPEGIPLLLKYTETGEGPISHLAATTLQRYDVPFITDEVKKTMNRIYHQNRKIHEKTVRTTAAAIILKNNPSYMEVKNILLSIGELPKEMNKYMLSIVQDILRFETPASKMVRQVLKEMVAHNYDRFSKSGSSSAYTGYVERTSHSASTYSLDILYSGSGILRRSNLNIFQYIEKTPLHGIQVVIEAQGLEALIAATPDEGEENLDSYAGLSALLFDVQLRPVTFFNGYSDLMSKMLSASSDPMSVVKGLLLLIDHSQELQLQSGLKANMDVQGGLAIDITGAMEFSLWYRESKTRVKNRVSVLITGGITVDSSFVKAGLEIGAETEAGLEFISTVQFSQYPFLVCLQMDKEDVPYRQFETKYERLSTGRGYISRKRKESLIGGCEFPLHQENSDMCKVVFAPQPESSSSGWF
T1 sequence (P05307 21-510 partner): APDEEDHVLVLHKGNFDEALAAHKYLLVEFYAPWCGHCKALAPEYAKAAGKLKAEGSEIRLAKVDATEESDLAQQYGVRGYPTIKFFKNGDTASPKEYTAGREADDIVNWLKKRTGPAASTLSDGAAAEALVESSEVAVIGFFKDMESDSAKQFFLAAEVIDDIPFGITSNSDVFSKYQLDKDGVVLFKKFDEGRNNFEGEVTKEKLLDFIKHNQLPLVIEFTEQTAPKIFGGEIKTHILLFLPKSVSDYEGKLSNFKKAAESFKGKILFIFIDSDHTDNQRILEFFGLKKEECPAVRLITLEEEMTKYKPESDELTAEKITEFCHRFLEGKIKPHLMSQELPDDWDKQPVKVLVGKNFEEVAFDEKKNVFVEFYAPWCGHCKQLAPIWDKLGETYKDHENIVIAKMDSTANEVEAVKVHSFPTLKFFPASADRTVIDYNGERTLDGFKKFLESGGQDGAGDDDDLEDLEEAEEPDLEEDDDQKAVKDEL
Protocol: Inhibition of Interliposomal Triglyceride (TG) Transfer Activity by MTP
Microsomal triglyceride transfer protein (MTP) from bovine liver was partially purified in such a way described below. A buffer (50 mM Tris, 250 mM sucrose, 1 mM EDTA, 0.02% NaN3 (pH 7.4)) for making a homogenate preparation was added to bovine liver, and the mixture was homogenated under ice-cooling, then centrifuged at 10,000×g (4° C., 30 minutes). The supernatant was adjusted to pH 5.1 with hydrochloric acid, and stirred for 30 minutes. The solution was further centrifuged at 10,000×g (4° C., 30 minutes), and 1 mM Tris buffer was added to the precipitated residue, and the mixture was adjusted to pH 8.6 with sodium hydroxide. After addition of 2.7M ammonium sulfate solution, the mixture was stirred for 30 minutes, then centrifuged at 10,000×g (4° C., 40 minutes). The resulting supernatant was served as a crude extraction fraction of MTP and stored at −80° C. under freezing. In its practical use, the crude extraction fraction of MTP was purified by column chromatography on diethylaminoethyl (DEAE) Sepharose using FPLC (Fast Performance Liquid Chromatography) system, and the purified MTP was used for the test.
Small unilamellar-vesicle (SUV) liposome (donor, 0.25 mol % triolein, 5 mol % cardiolipin) labeled with ^14C-triolein and non-labeled SUV liposome (acceptor, 0.25 mol % triolein) were prepared. A fixed amount of donor and acceptor, and MTP were mixed with a sample dissolved in DMSO or with DMSO. The mixture was incubated in a 15 mM Tris hydrochloride buffer (pH 7.4) containing 40 mM sodium chloride, 1 mM EDTA (ethylenediaminetetraacetic acid), 0.02% NaN3 and 0.5% bovine serum albumin at 37° C. for one hour. After completion of the incubation, a suspension of DEAE cellulose (50% v/v) in 15 mM Tris hydrochloride buffer (pH 7.4) was added to the above solution, and the mixture was centrifuged to separate the donor and the acceptor. The radioactivity in the acceptor was measured by liquid scintillation counter. The value obtained by subtracting the radioactivity in the blank from the amount of radioactivity in the acceptor of a DMSO group was determined as MTP-mediated TG transfer activity, and it was compared with the value obtained by subtracting the radioactivity in the blank from the radioactivity in a sample group. The blank was prepared by adding 15 mM Tris-HCl buffer (pH 7.4) in place of MTP. Inhibition rate (%) was calculated from the values obtained according to the following equation.
Inhibition rate (%)=100×(1 minus ((radioactivity of sample group minus radioactivity of blank group)/(radioactivity of DMSO group minus radioactivity of blank group))).
50% Inhibition rate (IC50) was determined on the basis of the above equation.
Inhibitory Activity on MTP and apo B Secretion Inhibition by Metabolites
In a similar manner to Test Examples 1 and 2, the activity of metabolites was assayed.

[2] = 24 hours, apo B in supernatant by ELISA, read-out: Test Example 2 Inhibition of apo B secretion IC50
[3] = MTP-mediated 14C-triolein transfer between liposomes, 37° C., one hour, read-out: Test Example 1 MTP inhibition IC50

Row | IC50 (HepG2 cells; [2]) | IC50 [1, 3] | Structure (SMILES) | inhibition in vivo at 3 mg/kg (Syrian hamsters) | also measured
1 | 2.3 nM |  | CCNC(=O)C(COC(=O)Cc1ccc(NC(=O)c2ccccc2-c2ccc(C(F)(F)F)cc2)c(C(=O)OCC)c1)(C(=O)NCC)c1ccccc1 [Example 9-10] | 54% | 
2 | 0.53 nM |  | CCNC(=O)C(CCOC(=O)Cc1ccc(NC(=O)c2ccccc2-c2ccc(C(F)(F)F)cc2)c(C(=O)N(C)CC)c1)(C(=O)NCC)c1ccccc1 [Example 2-15] | 81% | 
3 | 0.36 nM |  | CCNC(=O)C(CCOC(=O)Cc1ccc(NC(=O)c2ccccc2-c2ccc(C(F)(F)F)cc2)c(OC(C)C)c1)(C(=O)NCC)c1ccccc1 [Example 3-11] | 75% | 
4 | 2.2 nM |  | CCCNC(=O)C(COC(=O)Cc1ccc(NC(=O)c2ccccc2-c2ccc(C(F)(F)F)cc2)c(OC)c1)(C(=O)NCCC)c1ccccc1 [Example 3-5] |  | inhibition in vivo at 10 mg/kg (Syrian hamsters; 10 mg/kg p.o.): 80%
5 | 1.2 nM |  | CCNC(=O)C(COC(=O)Cc1ccc(NC(=O)c2ccccc2-c2ccc(C(F)(F)F)cc2)c(C(=O)N(C)CC)c1)(C(=O)NCC)c1ccccc1 [Example 2-14] | 80% | 
6 | 0.99 nM |  | CCNC(=O)C(COC(=O)Cc1ccc(NC(=O)c2ccccc2-c2ccc(C(F)(F)F)cc2)c(C(=O)N(CC)CC)c1)(C(=O)NCC)c1ccccc1 [Example 2-8] | 89% | 
7 | 0.36 nM |  | CCOC(=O)C(COC(=O)Cc1ccc(NC(=O)c2ccc(C)cc2-c2ccc(C(F)(F)F)cc2)c(C(=O)N(C)C)c1)(C(=O)OCC)c1ccccc1 [Example 2-48] | 87% | 
8 | 6.3 nM |  | CCC(=O)N[C@H](COC(=O)Cc1ccc(NC(=O)c2ccccc2-c2ccc(C(F)(F)F)cc2)c(C(=O)N(C)C)c1)c1ccccc1 [Example 2-25] | 55% | 
9 | 0.74 nM |  | CCOC(=O)C(COC(=O)Cc1ccc(NC(=O)c2ccccc2-c2ccc(C(F)(F)F)cc2)c(C(=O)N(C)CC)c1)(C(=O)OCC)c1ccccc1 [Example 2-13] | 70% | 
10 | 64 nM | 13 nM | CCOC(=O)C(COC(=O)Cc1ccc(NC(=O)c2ccccc2-c2ccc(C(F)(F)F)cc2)c(OCc2ccccc2)c1)(C(=O)OCC)c1ccccc1 [Example 3-14] |  | 
11 | 330 nM | 7.55 nM | CC(C(=O)OCC1(C(=O)NCC(F)(F)F)c2ccccc2-c2ccccc21)c1ccc(NC(=O)c2ccccc2-c2ccc(C(F)(F)F)cc2)cc1 (stereo not shown) [Example 1-7] |  | 
12 | 63 nM | 54 nM | O=C(Cc1ccc(NC(=O)c2ccccc2-c2ccc(C(F)(F)F)cc2)cc1)OCC(C(=O)NC1CCCCC1)(C(=O)NC1CCCCC1)c1ccccc1 [Example 1-23] |  | 
13 | 90 nM | 16 nM | CC(C)COC(=O)C(COC(=O)Cc1ccc(NC(=O)c2ccccc2-c2ccc(C(F)(F)F)cc2)cc1)(C(=O)OCC(C)C)c1ccccc1 [Example 1-63] |  | 
14 | 5 nM | 4.5 nM | CCCNC(=O)C(CCOC(=O)Cc1cccc(NC(=O)c2ccccc2-c2ccc(C(F)(F)F)cc2)c1)(C(=O)NCCC)c1ccccc1 [Example 5-5] |  | 
15 | 57 nM | 2.4 nM | CCNC(=O)C(CCOC(=O)Cc1cccc(NC(=O)c2ccccc2-c2ccc(C(F)(F)F)cc2)c1)(C(=O)NCC)c1ccccc1 [Example 5-4] |  | 
16 | 5.3 nM | 20 nM | CCCNC(=O)C(CCOC(=O)Cc1ccc(NC(=O)c2ccccc2-c2ccc(C(F)(F)F)cc2)cc1)(C(=O)NCCC)c1ccccc1 [Example 1-49] |  | 
17 | 0.69 nM |  | CCCN(C)C(=O)c1cc(CC(=O)OCC(C(=O)OCC)(C(=O)OCC)c2ccccc2)ccc1NC(=O)c1ccccc1-c1ccc(C(F)(F)F)cc1 [Example 2-18] | 58% | 
18 |  |  | COc1cc(CC(=O)O)ccc1NC(=O)c1ccccc1-c1ccc(C(F)(F)F)cc1 |  | IC50 ([1]; main metabolites of the compounds (Test Example 8), read-out: MTP inhibition IC50): > 1000 nM; IC50 (HepG2 cells; main metabolites of the compounds (Test Example 8), read-out: Inhibition of apo B secretion IC50): > 10000 nM
19 | 320 nM | 6 nM | CCOC(=O)C(COC(=O)Cc1ccc(NC(=O)c2ccccc2-c2ccc(C(F)(F)F)cc2)cc1)(C(=O)OCC)c1cccnc1 [Example 1-38] |  | 
20 | 9.7 nM | 3.2 nM | CCNC(=O)C(CCOC(=O)Cc1ccc(NC(=O)c2ccccc2-c2ccc(C(F)(F)F)cc2)cc1)(C(=O)NCC)c1ccccc1 [Example 1-48] |  | 
21 | 340 nM | 14 nM | CC(C)NC(=O)C(CCOC(=O)Cc1cccc(NC(=O)c2ccccc2-c2ccc(C(F)(F)F)cc2)c1)(C(=O)NC(C)C)c1ccccc1 [Example 5-8] |  | 
22 | 47 nM | 3.5 nM | CCOC(=O)C(COC(=O)Cc1ccc(NC(=O)c2ccccc2-c2ccc(C(F)(F)F)cc2)cc1)(C(=O)OCC)c1ccccn1 [Example 1-37] |  | 

Row | Structure (SMILES) | IC50 (HepG2 cells; [2]) | IC50 [1, 3] | inhibition in vivo at 3 mg/kg (Syrian hamsters) | also measured
23 | CCOC(=O)C(COC(=O)Cc1ccc(N(C)C(=O)c2ccccc2-c2ccc(C(F)(F)F)cc2)cc1)(C(=O)OCC)c1ccccc1 [Example 1-4, 2-(2-{4-[Methyl-(4′-trifluoromethylbiphenyl-2-carbonyl)amino]phenyl}acetoxymethyl)-2-phenylmalonic acid diethyl ester] | 190 nM | 3.4 nM |  | 
